Data published in PubChem BioAssay (NCI).
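Results reflect a 48-hour exposure of cells in 96-well plates to compound at five concentrations. TGI denotes the concentration required for complete inhibition of growth.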

What was measured:
Test in all cases: NCI anticancer screen, dose series, 48 h
MCF7 breast = test system: MCF7 breast
OVCAR-3 ovarian = test system: OVCAR-3 ovarian
EKVX NSCLC = test system: EKVX NSCLC
SF-539 CNS = test system: SF-539 CNS
TK-10 renal = test system: TK-10 renal
SK-OV-3 ovarian = test system: SK-OV-3 ovarian
RXF 393 renal = test system: RXF 393 renal
SNB-75 CNS = test system: SNB-75 CNS
A498 renal = test system: A498 renal
NCI/ADR-RES ovarian = test system: NCI/ADR-RES ovarian
UACC-62 melanoma = test system: UACC-62 melanoma
MDA-MB-231 breast = test system: MDA-MB-231 breast
SW-620 colon = test system: SW-620 colon
MALME-3M melanoma = test system: MALME-3M melanoma
SK-MEL-2 melanoma = test system: SK-MEL-2 melanoma
MOLT-4 leukemia = test system: MOLT-4 leukemia
OVCAR-8 ovarian = test system: OVCAR-8 ovarian
SF-268 CNS = test system: SF-268 CNS
NCI-H23 lung = test system: NCI-H23 lung
NCI-H226 lung = test system: NCI-H226 lung
HCT-116 colon = test system: HCT-116 colon
M14 melanoma = test system: M14 melanoma
786-0 renal = test system: 786-0 renal
KM12 colon = test system: KM12 colon
LOX IMVI melanoma = test system: LOX IMVI melanoma
OVCAR-5 ovarian = test system: OVCAR-5 ovarian
COLO 205 colon = test system: COLO 205 colon
ACHN renal = test system: ACHN renal
MDA-MB-435 = test system: MDA-MB-435
HS 578T breast = test system: HS 578T breast
NCI-H460 lung = test system: NCI-H460 lung
CCRF-CEM leukemia = test system: CCRF-CEM leukemia
HCT-15 colon = test system: HCT-15 colon
CAKI-1 renal = test system: CAKI-1 renal
HL-60(TB) leukemia = test system: HL-60(TB) leukemia
SK-MEL-28 melanoma = test system: SK-MEL-28 melanoma
SR leukemia = test system: SR leukemia
RPMI-8226 leukemia = test system: RPMI-8226 leukemia
K-562 leukemia = test system: K-562 leukemia
BT-549 breast = test system: BT-549 breast
HT29 colon = test system: HT29 colon
U251 CNS = test system: U251 CNS
IGROV1 ovarian = test system: IGROV1 ovarian
SF-295 CNS = test system: SF-295 CNS
PC-3 prostate = test system: PC-3 prostate
HOP-62 NSCLC = test system: HOP-62 NSCLC
MDA-N = test system: MDA-N
DU-145 prostate = test system: DU-145 prostate
UACC-257 melanoma = test system: UACC-257 melanoma
SN12C renal = test system: SN12C renal

Measured: TGI

O=C(CN1CCN(c2ccccc2)CC1)c1ccc2[nH]c(=O)oc2c1
> 100 µM: all assays above
